Assay results taken from publication PMC6287892, “Design, Synthesis, and Biological Evaluation of 3-(Imidazo[1,2-a]pyrazin-3-ylethynyl)-4-isopropyl-N-(3-((4-methylpiperazin-1-yl)methyl)-5-(trifluoromethyl)phenyl)benzamide as a Dual Inhibitor of Discoidin Domain Receptors 1 and 2” (Journal of Medicinal Chemistry, 2018).

Columns and labels:
[1] = Pharmacokinetic parameters in rats; type: in vivo; settings: SD rats
Method: Male SD rats weighing 180–220 g (Southern China Medical University) were utilized for the studies. The protocol was approved by the Animal Care and Use Committee, GIBH. Animals were given standard animal chow and water ad libitum in a climate-controlled room (23 ± 1 °C, 30–70% relative humidity, a minimum of 10 exchanges of room air per hour, and a 12 h light–dark cycle) for 1 week prior to experiments. The compound was dissolved in a solution containing 2% DMSO, 4% ethanol, 4% castor oil, and 90% ddH2O. The pharmacokinetic properties of the SD rats (male) were determined following iv and oral administration. Animals were randomly distributed into two experimental groups (n = 3). […] After single administration, whole blood samples (100–200 μL) were obtained from the orbital venous plexus at the following time points after dosing: 5, 10, and 30 min and 1, 2, 3, 4, 6, 8, 11, and 24 h (po) or 2, 10, and 30 min and 1, 2, 3, 4, 6, 8, 11, and 24 h (iv). Whole blood samples were collected in heparinized tubes. The plasma fraction was immediately separated by centrifugation (8000 rpm, 6 min, 4 °C) and stored at −20 °C until LC-MS analysis. The rats were humanely euthanasia by carbon dioxide 24 h after the experiment without pain. The pharmacokinetics parameters were calculated by analyzing the compound concentrations in plasma samples using the pharmacokinetic software DAS.2.0.

[2] = test system: Male C57BL/6 mice; assay: Acute-toxicity assay in mice; type: in vivo; settings: 200 or 400 mg/kg by gavage
Method: Male C57BL/6 mice weighing 18–20 g were randomly divided into three groups (n = 5 per group). Mice were gavage-administered 200 μL of the drug (at 200 or 400 mg/kg in physiological saline). Mice in the control group received 200 μL of physiological saline. After drug administration, body-weight changes were recorded for 7 days.

[3] = male, rat, plasma, iv (4 mg/kg)
[4] = male, rat, plasma, oral (20 mg/kg)

With `CC(C)c1ccc(C(=O)Nc2cc(CN3CCN(C)CC3)cc(C(F)(F)F)c2)cc1C#Cc1cnc2cnccn12` [Compound 5n, 3-(Imidazo[1,2-a]pyrazin-3-ylethynyl)-4-isopropyl-N-(3-((4-methylpiperazin-1-yl)methyl)-5-(trifluoromethyl)phenyl)benzamide] the BA ([1]; oral (20 mg/kg) vs iv (4 mg/kg)) was 8.06%, the AUC(0-inf) [1, 3] was 798 ± 121 ng·h/mL and the Cmax [1, 3] was 1180 ± 150 ng/mL. The half-life [1, 3] was 2.12 ± 0.25 h, the clearance ([1]; male, rat, plasma, iv (4 mg/kg), read-out: CLz (converted)) was 85 mL/min/kg and the AUC(0-inf) [1, 4] was 322 ± 106 ng·h/mL. It also gave a Cmax [1, 4] of 48.7 ± 18.2 ng/mL, a Tmax [1, 4] of 1.5 ± 1.3 h and a half-life [1, 4] of 2.08 ± 0.66 h. The tolerability [2] was “well-tolerated” and the “animal deaths and body-weight changes” value ([2]; 7 days) was “no animal deaths or obvious body-weight changes”.
